Literature values, collected in patent US10610592B2, “Treatment of multiple sclerosis” (priority 2014, dated 2020).

What was measured:
[1] = very prolonged elimination
[2] = patients treated with alemtuzumab

elimination time [1] | Compound | patients who develop thyroid autoimmune diseases, and hematologic and renal complications [2]
up to 2 years | C/C(O)=C(\C#N)C(=O)Nc1ccc(C(F)(F)F)cc1 [Teriflunomide] | 
 | Alemtuzumab: monoclonal antibody that binds to proteins (CD-52) on mature lymphocytes | Approximately 40%
